Results: ChEMBL document CHEMBL1201862, “PubChem BioAssay data set” (2004)
Calls of active or inactive are those of the source.

Legend:
[1] = target: T1, Alkaline phosphatase, tissue-nonspecific isozyme (Homo sapiens, UniProt P05186); assay: TNAP enzyme inhibition by screening hits, dose response, selectivity assay for mouse IAP inhibitor project, biochemical, human TNAP, uHTS hits (AID 488906); format: functional
T1 sequence (P05186 whole entry): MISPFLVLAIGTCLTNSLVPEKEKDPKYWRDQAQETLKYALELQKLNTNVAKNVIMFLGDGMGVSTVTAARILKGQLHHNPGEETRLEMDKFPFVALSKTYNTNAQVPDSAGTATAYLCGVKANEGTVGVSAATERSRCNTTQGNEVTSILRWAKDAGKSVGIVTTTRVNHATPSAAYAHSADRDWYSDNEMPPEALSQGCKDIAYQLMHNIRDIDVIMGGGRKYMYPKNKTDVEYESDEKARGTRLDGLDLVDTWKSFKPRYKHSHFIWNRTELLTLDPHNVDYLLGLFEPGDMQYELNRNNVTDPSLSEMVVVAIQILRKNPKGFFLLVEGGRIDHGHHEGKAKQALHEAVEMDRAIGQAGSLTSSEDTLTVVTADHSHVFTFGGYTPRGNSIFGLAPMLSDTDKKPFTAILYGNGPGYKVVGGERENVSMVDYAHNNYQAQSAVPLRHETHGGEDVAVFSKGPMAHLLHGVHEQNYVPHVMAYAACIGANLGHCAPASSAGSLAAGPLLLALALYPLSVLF

Large T antigen = Large T antigen (Simian virus 40, UniProt P03070); format: functional, Betapolyomavirus macacae;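 also: Confirmatory-stage PubChem screen for compounds that inhibit SV40 T antigen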
[2] = target: T2, Intestinal-type alkaline phosphatase (Mus musculus, UniProt P24822); assay: PubChem AID 488785; format: functional
T2 sequence (P24822 whole entry): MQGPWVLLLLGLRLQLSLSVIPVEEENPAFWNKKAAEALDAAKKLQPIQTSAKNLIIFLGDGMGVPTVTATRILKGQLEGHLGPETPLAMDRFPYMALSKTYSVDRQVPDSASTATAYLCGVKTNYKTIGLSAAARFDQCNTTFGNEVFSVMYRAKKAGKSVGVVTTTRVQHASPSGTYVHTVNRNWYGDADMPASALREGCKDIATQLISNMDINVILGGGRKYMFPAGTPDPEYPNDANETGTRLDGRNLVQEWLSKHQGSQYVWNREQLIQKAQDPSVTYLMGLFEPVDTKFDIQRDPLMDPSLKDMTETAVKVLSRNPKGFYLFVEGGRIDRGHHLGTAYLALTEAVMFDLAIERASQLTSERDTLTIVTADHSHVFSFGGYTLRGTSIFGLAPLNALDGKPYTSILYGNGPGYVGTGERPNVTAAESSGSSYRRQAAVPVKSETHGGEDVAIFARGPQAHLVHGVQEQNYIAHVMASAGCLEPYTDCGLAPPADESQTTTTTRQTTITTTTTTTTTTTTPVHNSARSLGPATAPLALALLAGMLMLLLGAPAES

[3] = target: T3, Intestinal-type alkaline phosphatase (Homo sapiens, UniProt P09923); assay: inhibition of human intestinal alkaline phosphatase – biochemical, dose response (AID 488876); format: functional
T3 sequence (P09923 whole entry, the tested form may be a part): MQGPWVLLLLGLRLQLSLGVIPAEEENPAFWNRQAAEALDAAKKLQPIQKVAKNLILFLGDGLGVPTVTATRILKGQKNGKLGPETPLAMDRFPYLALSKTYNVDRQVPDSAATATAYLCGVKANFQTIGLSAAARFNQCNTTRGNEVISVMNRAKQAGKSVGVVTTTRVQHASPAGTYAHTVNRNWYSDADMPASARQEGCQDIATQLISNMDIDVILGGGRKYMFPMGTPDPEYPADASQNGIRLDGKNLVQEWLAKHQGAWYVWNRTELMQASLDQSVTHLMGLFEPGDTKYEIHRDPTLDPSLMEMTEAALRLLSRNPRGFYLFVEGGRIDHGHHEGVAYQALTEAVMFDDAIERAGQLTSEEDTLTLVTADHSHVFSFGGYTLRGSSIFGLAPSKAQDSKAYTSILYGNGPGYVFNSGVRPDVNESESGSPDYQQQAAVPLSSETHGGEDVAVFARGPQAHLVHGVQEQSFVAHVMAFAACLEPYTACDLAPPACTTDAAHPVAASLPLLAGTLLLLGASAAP

[4] = target: T4, Carboxy-terminal domain RNA polymerase II polypeptide A small phosphatase 1 (Homo sapiens, UniProt Q9GZU7); assay: CTDSP1 inhibitors, concentration-response, biochemical, absorbance readout, ultra-high-throughput screen actives (AID 540297); format: functional
T4 sequence (Q9GZU7 whole entry): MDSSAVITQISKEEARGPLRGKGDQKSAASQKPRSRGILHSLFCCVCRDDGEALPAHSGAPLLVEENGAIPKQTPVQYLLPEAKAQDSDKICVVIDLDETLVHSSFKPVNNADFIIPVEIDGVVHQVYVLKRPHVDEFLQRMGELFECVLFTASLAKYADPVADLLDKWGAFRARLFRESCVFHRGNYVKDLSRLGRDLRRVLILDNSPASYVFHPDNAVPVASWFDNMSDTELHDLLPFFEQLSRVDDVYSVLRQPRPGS

[5] = target: Induced myeloid leukemia cell differentiation protein Mcl-1 (Homo sapiens, UniProt Q07820); format: functional
[6] = target: T5, Small ubiquitin-related modifier 1 (Homo sapiens, UniProt P63165); assay: SUMO1 protein-protein binding blockers, potency – biochemical, FRET, dose response (AID 624383); format: functional; conditions: read-out: IC50_Mean
T5 sequence (P63165 whole entry): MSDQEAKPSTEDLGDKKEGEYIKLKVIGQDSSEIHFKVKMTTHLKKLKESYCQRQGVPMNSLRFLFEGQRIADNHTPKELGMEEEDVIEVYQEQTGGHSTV

[7] = target: T6, Apoptotic protease-activating factor 1 (Homo sapiens, UniProt O14727); assay: activation of Apaf-1 mediated apoptosis – fluorescent, uHTS hits, dose response (AID 588554); format: functional
T6 sequence (O14727 whole entry): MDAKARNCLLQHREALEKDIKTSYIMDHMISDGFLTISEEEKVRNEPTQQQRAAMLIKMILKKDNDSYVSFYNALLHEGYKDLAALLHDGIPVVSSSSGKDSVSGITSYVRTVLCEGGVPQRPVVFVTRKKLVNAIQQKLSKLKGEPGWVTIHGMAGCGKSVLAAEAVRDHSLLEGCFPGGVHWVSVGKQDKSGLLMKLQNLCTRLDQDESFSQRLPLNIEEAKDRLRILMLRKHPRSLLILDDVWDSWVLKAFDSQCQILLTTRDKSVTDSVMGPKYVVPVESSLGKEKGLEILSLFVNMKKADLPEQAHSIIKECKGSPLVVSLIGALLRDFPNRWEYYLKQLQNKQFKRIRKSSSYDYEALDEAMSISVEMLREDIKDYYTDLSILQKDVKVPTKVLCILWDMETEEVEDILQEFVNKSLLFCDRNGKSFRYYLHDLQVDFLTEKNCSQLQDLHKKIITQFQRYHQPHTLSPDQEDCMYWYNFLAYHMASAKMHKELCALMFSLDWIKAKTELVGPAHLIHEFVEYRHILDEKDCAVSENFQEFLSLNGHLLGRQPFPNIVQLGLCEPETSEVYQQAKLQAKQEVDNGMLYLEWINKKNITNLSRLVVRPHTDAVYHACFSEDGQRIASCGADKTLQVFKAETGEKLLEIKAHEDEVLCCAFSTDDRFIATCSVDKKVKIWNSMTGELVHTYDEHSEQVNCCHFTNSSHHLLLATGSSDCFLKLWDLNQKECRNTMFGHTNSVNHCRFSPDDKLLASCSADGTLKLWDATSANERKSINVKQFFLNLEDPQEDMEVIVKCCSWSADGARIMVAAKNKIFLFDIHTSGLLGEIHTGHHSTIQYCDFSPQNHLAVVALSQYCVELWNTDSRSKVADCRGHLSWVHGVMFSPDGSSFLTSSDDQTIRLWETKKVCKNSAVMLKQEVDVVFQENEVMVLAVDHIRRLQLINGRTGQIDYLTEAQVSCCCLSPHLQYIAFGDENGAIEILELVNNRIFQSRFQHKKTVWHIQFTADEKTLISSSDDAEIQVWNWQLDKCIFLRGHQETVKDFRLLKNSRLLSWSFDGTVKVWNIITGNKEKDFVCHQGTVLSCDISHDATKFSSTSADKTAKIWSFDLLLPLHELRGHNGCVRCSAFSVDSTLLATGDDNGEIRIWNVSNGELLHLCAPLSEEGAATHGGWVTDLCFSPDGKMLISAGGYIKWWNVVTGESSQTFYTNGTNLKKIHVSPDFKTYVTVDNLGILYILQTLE

[8] = target: DNA (cytosine-5)-methyltransferase 1 (Homo sapiens, UniProt P26358); assay: inhibition of DNA methylation by DNMT1 – biochemical, fluorescent molecular beacon, confirmation (AID 602386); format: functional
[9] = target: T7, Voltage-gated N-type calcium channel alpha-1B subunit/Amyloid beta A4 precursor protein-binding family A member 1 (Homo sapiens, UniProt Q00975+Q02410); format: protein assay
T7 sequence (Q00975 whole entry): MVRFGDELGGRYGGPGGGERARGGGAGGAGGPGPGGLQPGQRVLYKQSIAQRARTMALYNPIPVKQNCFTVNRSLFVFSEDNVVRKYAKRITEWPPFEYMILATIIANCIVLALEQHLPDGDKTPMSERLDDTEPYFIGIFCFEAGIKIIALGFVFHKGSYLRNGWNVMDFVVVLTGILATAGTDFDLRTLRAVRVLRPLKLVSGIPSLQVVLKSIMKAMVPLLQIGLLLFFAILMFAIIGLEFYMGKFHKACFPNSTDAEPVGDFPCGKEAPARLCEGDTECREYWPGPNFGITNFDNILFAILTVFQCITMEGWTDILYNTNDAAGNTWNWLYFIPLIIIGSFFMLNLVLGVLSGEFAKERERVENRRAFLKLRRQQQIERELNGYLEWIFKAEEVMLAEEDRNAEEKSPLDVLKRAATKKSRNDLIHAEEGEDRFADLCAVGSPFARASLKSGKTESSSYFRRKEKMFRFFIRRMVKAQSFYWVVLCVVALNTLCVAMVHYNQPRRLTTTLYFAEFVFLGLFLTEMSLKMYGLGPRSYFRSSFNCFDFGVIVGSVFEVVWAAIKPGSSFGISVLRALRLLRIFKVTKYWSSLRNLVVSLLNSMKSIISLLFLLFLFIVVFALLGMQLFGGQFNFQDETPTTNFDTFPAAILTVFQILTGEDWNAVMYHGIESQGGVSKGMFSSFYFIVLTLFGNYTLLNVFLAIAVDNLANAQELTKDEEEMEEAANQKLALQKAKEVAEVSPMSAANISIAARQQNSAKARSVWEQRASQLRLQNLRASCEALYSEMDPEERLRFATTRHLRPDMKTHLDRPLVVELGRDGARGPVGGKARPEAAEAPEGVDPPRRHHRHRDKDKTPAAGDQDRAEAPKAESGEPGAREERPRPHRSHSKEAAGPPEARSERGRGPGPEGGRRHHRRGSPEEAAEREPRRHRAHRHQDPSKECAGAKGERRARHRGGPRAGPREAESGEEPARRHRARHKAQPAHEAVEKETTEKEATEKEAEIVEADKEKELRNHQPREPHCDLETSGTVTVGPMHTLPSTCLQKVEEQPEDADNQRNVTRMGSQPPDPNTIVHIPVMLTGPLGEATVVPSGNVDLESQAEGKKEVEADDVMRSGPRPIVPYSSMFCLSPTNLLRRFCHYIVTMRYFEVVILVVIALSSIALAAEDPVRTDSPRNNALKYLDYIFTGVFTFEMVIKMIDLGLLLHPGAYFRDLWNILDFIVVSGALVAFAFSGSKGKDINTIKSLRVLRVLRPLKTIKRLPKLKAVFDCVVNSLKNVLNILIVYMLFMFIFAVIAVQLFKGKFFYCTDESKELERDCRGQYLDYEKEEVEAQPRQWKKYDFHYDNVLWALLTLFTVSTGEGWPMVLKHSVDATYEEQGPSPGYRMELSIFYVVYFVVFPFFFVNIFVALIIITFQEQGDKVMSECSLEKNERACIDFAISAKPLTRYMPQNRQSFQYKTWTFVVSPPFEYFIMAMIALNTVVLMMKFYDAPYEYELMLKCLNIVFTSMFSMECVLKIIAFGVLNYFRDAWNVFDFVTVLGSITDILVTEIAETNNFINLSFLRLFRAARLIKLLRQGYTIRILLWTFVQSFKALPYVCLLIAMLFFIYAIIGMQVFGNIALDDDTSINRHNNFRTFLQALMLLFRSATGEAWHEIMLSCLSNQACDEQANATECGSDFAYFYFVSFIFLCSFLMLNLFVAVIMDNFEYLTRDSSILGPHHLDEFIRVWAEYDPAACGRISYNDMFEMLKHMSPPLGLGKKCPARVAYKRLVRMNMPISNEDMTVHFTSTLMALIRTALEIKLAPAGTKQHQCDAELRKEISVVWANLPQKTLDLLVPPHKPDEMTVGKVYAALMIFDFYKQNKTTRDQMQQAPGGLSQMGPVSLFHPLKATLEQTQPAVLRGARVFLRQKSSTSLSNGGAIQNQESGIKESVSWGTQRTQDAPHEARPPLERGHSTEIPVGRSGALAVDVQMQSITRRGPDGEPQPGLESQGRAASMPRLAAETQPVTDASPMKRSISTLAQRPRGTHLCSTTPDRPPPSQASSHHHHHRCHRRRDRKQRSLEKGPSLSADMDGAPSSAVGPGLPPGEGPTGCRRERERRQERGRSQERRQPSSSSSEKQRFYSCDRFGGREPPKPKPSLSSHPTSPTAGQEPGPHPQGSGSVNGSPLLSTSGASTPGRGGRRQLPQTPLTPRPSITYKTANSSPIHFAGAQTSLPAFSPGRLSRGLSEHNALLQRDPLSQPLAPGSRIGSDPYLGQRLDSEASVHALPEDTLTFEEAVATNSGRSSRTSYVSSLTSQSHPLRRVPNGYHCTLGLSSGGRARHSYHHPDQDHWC
T7 sequence (Q02410 whole entry): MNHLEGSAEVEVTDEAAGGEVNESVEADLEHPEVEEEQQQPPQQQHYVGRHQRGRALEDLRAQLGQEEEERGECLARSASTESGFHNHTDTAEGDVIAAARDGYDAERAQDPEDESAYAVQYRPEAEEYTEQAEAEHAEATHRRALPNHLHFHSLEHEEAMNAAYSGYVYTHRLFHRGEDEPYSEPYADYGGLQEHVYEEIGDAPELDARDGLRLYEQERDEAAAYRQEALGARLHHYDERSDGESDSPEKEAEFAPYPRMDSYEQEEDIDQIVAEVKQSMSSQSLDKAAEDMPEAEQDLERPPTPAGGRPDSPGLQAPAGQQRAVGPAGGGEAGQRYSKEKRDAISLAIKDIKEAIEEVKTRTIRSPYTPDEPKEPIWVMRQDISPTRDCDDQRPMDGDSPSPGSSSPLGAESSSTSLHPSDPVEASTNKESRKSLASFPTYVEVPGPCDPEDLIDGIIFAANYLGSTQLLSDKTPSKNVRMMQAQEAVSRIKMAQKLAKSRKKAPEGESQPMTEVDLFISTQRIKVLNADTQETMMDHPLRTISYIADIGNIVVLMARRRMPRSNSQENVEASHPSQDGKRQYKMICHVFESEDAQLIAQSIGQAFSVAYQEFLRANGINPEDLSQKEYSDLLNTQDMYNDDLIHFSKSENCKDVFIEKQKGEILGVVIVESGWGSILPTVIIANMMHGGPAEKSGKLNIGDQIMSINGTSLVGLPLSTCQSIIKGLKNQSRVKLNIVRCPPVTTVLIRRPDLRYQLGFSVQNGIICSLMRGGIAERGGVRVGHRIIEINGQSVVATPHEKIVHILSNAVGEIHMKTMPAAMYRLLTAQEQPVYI

[10] = target: T7, Voltage-gated N-type calcium channel alpha-1B subunit/Amyloid beta A4 precursor protein-binding family A member 1; format: protein assay; remark: listed apart in the source
[11] = target: T5, Small ubiquitin-related modifier 1; assay: SUMO1 protein interaction blockers, potency – biochemical, fluorescence polarization, uHTS hits, dose response (AID 624382); format: functional; conditions: read-out: IC50_Mean
[12] = target: T1, Alkaline phosphatase, tissue-nonspecific isozyme; assay: activation of tissue-nonspecific alkaline phosphatase – biochemical, TNAP isozyme, human IAP uHTS hits, selectivity assay for human IAP activator project, dose response (AID 488886); format: functional;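 also: potency of compounds raising TNAP activity as a selectivity check on IAP activators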
[13] = target: T3, Intestinal-type alkaline phosphatase; assay: human intestinal alkaline phosphatase activators, dose response, biochemical, luminescence, uHTS hits (AID 463120); format: functional
[14] = target: T2, Intestinal-type alkaline phosphatase; assay: PubChem AID 488874; format: functional
[15] = target: T3, Intestinal-type alkaline phosphatase; assay: activation of human intestinal alkaline phosphatase – biochemical, luminescent, uHTS hits, set 2, dose response (AID 488817); format: functional;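 also: potency of activators that raise enzyme activity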
[16] = target: Eukaryotic translation initiation factor 4E (Mus musculus, UniProt P63073); assay: blockers of eIF4G binding by eIF4E – biochemical, TR-FRET, dose response (AID 855); format: functional;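 also: potency for disrupting eIF4E binding to eIF4GI seen as loss of FRET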
Phosphomannomutase 2 = Phosphomannomutase 2 (Homo sapiens, UniProt O15305); assay: Counter screen SAR assay for PMM2 inhibitors via a fluorescence intensity assay. [Related pubchem assays (depositor defined):AID1545, AID1574]
Phosphomannomutase 2, sequence (O15305 whole entry): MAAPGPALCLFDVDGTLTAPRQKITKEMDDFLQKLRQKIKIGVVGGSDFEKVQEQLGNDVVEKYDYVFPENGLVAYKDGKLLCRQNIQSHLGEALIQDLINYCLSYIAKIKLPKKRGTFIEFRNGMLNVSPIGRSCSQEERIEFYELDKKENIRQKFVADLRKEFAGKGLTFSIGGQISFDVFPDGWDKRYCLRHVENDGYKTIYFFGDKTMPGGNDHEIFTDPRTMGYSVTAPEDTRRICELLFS

[17] = target: T8, Mannose-6-phosphate isomerase (Homo sapiens, UniProt P34949); assay: phosphomannose isomerase inhibition – biochemical, fluorescence intensity, confirmation (AID 1535)
T8 sequence (P34949 whole entry): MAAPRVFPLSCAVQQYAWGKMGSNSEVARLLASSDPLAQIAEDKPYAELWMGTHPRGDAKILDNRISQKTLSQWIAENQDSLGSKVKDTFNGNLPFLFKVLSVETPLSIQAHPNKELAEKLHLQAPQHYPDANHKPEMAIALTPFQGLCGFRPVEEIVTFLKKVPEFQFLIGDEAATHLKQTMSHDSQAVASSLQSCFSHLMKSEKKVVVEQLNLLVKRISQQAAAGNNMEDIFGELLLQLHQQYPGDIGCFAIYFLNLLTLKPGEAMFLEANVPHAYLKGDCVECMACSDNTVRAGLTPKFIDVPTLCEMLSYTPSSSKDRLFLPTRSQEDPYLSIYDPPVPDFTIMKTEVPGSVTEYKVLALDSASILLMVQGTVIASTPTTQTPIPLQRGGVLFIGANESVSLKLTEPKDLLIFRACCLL

[18] = target: T8, Mannose-6-phosphate isomerase; assay: MPI inhibition at elevated mannose 6-phosphate – biochemical, fluorescence intensity, high mannose 6-phosphate, primary screen (AID 1220)
[19] = target: T9, Delta-type opioid receptor (Homo sapiens, UniProt P41143); assay: delta opioid receptor blockers – image-based, SAR follow-up (AID 2357); format: functional
Mu-type opioid receptor [20] = target: T10, Mu-type opioid receptor (Homo sapiens, UniProt P35372); assay: mu opioid receptor blockers – image-based, SAR follow-up (AID 2420); format: functional;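 also: compounds added before stimulation of receptor with agonist DAMGO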
Mu-type opioid receptor [21] = target: T10, Mu-type opioid receptor; assay: mu opioid receptor activators, image-based, SAR follow-up (AID 2352); format: functional
[22] = target: T11, Kappa-type opioid receptor (Homo sapiens, UniProt P41145); assay: SAR analysis of small molecule agonists of the kappa opioid receptor via a luminescent beta-arrestin assay. [Related pubchem assays (depositor defined):AID1777, AID1786, AID1966, AID2133, AID2136, AID2348, AID2352, AID2357, AID2359, AID2370, AID2420, AID2478, AID2491, AID2492, AID2493, AID2497, AID2498, AID2500, AID449737, AID488822, AID488842]; format: functional
T11 sequence (P41145 whole entry): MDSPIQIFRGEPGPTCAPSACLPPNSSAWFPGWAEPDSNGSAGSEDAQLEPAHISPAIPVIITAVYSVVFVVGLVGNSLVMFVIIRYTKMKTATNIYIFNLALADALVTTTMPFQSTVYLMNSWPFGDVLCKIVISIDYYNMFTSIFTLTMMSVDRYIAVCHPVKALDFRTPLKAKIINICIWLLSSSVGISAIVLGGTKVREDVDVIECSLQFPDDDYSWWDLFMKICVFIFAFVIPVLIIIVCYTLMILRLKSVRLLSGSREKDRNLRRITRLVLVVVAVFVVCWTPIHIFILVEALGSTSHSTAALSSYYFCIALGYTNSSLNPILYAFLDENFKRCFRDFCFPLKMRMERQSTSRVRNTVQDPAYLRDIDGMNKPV

[23] = target: T11, Kappa-type opioid receptor; assay: kappa opioid receptor blockers, image-based, SAR follow-up (AID 2348); format: functional
[24] = target: T11, Kappa-type opioid receptor; assay: kappa opioid receptor activation potency – imaging, image-based, SAR follow-up (AID 2359); format: functional
[25] = target: T9, Delta-type opioid receptor; assay: DOR agonists, SAR follow-up, image-based (AID 2370); format: functional
[26] = target: T12, Serine/threonine-protein phosphatase (Candida dubliniensis (strain CD36 / CBS 7987 / NCPF 3949 / NRRLY-17841) (Yeast), UniProt B9W6M3); assay: Fluorescence Cell-Based Secondary Assay to Identify Inhibitors of Calcineurin. [Related pubchem assays (depositor defined):AID1979, AID2007]; format: functional
T12 sequence (B9W6M3 whole entry): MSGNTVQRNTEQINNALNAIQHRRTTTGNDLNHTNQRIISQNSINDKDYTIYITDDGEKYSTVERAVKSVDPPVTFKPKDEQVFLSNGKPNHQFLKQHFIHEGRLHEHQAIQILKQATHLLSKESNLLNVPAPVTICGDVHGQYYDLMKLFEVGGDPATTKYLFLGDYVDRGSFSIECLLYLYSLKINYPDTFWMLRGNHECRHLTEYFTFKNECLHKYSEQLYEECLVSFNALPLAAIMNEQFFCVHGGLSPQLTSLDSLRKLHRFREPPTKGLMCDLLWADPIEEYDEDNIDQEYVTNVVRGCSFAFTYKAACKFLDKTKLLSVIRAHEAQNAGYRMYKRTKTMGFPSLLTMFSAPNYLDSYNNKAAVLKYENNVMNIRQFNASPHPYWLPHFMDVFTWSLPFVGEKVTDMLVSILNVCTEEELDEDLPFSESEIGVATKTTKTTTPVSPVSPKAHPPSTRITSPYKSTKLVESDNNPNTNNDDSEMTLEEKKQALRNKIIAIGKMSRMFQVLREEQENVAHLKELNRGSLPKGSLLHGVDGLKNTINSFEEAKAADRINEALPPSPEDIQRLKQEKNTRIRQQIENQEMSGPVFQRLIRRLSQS

SMILES: Oc1cc(O)c2c(c1)OC(c1ccc(O)c(O)c1)C(O)C2 (stereo not drawn)
- IC50 [1]: > 100 µM (inactive)
- IC50 (Large T antigen): 8.64 µM (active)
- IC50 [2]: 24.1 µM (active)
- IC50 [3]: > 100 µM (inactive)

SMILES: C=C(C)C(=O)Nc1cccc(C2=NOC3(C2)C[C@@H](C(N)=O)N(C(=O)/C(C)=C/C)C3)c1 (stereo partly drawn)
- IC50 [4]: 0.54 µM (active)
- IC50 [5]: 23.6 µM (not active)
- IC50 [6]: 0.869 µM (active)
- EC50 [7]: 1.69 µM (active)
- IC50 [8]: 1.94 µM (active)
- IC50 [9]: > 50 µM (inactive)
- IC50 [10]: 17.7 µM (active)
- IC50 [11]: > 66.6 µM (inactive)

SMILES: Cc1nc2c3ccccc3nc(NNC(=O)CCC(=O)NCCC(C)C)n2n1
- EC50 [12]: 12.5 µM (active)
- EC50 [13]: 7.93 µM (active)
- IC50 [14]: 50.4 µM (active)
- EC50 [15]: 19.2 µM (active)

SMILES: COc1cc(/N=c2\ssnc2Cl)c(OC)cc1Cl
- IC50 [16]: 15.2 µM (active)
- IC50 (Phosphomannomutase 2): 97.3 µM (active)
- IC50 [17]: 3.12 µM (active)
- IC50 [18]: 6.24 µM (active)

SMILES: COc1ccc(CC2(CO)CCN(Cc3nccn3-c3cccc(C)c3)CC2)cc1
- IC50 [19]: > 32 µM (inactive)
- IC50 (Mu-type opioid receptor [20]): > 32 µM (inactive)
- EC50 (Mu-type opioid receptor [21]): > 32 µM (inactive)
- EC50 [22]: > 10 µM (inactive)
- IC50 [23]: > 32 µM (inactive)
- EC50 [24]: > 32 µM (inactive)
- EC50 [25]: > 32 µM (inactive)

SMILES: Nc1nccnc1C(=O)Nc1nnc(SCc2ccc(Cl)cc2)s1
- EC50 [26]: > 285 µM (inactive)
